Experimental findings from patent US8362065B2, “Carbazole carboxamide compounds useful as kinase inhibitors” (Bristol-Myers Squibb Company, priority 2008, dated 2013) are described below.

The structures appear in SMILES notation.

The test system of one assay is Ramos RA1 B cells. In words: Ramos FLIPR Assay. Type of assay: cell-based. Particulars: goat anti-human IgM 2.5 μg/mL, peak intracellular calcium, read-out: IC50 for Inhibition of Ramos FLIPR assay. On the technique in general: A change in cytosolic calcium serves as a functional read-out for many receptors and channels.
The next assay concerns the target T1, human recombinant Btk (Homo sapiens, UniProt Q06187).
T1 construct: purchased Invitrogen Corporation
In words: Human Recombinant Btk Enzyme Assay. Type of assay: biochemical. Particulars: human recombinant Btk 1 nM, ATP 20 μM, 60 min at room temperature; read-out: IC50 for Inhibition of Btk.

Assay [1] relates to anti-KLH IgG response in BALB/c mice. In words: KLH Antigen Challenge and Antibody Measurement. Particulars: female BALB/c mice, serum 14 days post-immunization. It is filed as in vivo, mouse. Here is the method: KLH Antigen Challenge and Antibody Measurement
Female BALB/c mice (6-8 weeks old) were immunized intraperitoneally (IP) with 250 μg keyhole limit hemocyanin (KLH) (Pierce, Rockford, Ill.) in phosphate-buffered saline (PBS). Mice in appropriate groups were dosed as indicated. Blood was collected 14 days post-immunization, serum was separated and analyzed for anti-KLH IgG titers by ELISA. Briefly, 96 well plates were coated with KLH in PBS, blocked, and serial dilutions of test serum samples were added.

T1 sequence (Q06187 whole entry): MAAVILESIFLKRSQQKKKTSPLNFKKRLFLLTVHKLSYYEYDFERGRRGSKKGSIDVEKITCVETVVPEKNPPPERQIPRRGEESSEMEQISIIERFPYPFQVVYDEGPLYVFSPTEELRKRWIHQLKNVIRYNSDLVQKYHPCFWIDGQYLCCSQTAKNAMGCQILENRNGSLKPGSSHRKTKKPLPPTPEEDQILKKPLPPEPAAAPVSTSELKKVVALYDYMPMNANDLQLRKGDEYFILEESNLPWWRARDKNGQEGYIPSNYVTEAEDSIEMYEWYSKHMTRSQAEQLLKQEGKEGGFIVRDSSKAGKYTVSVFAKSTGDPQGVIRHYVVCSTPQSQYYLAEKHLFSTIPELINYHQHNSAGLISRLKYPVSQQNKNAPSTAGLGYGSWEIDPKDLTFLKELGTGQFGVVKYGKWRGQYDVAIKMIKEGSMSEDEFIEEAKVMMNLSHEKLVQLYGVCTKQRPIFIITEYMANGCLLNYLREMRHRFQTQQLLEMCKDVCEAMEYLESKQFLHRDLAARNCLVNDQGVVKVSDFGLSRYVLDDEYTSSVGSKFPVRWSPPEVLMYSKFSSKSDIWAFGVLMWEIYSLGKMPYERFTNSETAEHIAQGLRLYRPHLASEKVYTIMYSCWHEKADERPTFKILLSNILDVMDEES

Regarding `COC(CO)c1ccc2c(c1)[nH]c1c(C(N)=O)ccc(-c3cccc(N4Cc5ccc(C)cc5C4=O)c3C)c12` (racemic) [Example 75-3], the results for the IC50 in the assay on Ramos RA1 B cells and at human recombinant Btk were 16 nM and 1.1 nM, respectively.

As for `CC(=O)NCc1ccc2c(c1)[nH]c1c(C(N)=O)ccc(-c3cccc(-n4cnc5ccc(F)cc5c4=O)c3C)c12` [Example 38-3, 7-(acetamidomethyl)-4-(3-(6-fluoro-4-oxoquinazolin-3(4H)-yl)-2-methylphenyl)-9H-carbazole-1-carboxamide], the 50% inhibitory concentration (IC50) with Ramos RA1 B cells stood at 23 nM; on human recombinant Btk it was 1.4 nM.

As to `Cc1c(-c2ccc(C(N)=O)c3[nH]c4cc(N5CCCC5=O)ccc4c23)cccc1N1Cc2ccccc2C1=O` [Example 62-1, 4-(2-methyl-3-(1-oxoisoindolin-2-yl)phenyl)-7-(2-oxopyrrolidin-1-yl)-9H-carbazole-1-carboxamide], in the assay with Ramos RA1 B cells, the IC50 came to 250 nM.

In the case of `Cc1ccc2c(c1)CN(c1cccc(-c3ccc(C(N)=O)c4[nH]c5cc(N6CCCC6=O)ccc5c34)c1C)C2=O` [Example 66-5], in the assay with Ramos RA1 B cells, the IC50 is 260 nM.

As to `Cc1c(-c2ccc(C(N)=O)c3[nH]c4cc(N5CCOC5=O)ccc4c23)cccc1N1Cc2ccccc2C1=O` [Example 66-10], the IC50 in the assay on Ramos RA1 B cells amounted to 270 nM.

Consider `Cc1c(-c2ccc(C(N)=O)c3[nH]c4cc(N5CCNC5=O)ccc4c23)cccc1N1Cc2cc(F)ccc2C1=O` [Example 66-14], for which the IC50 in the assay on Ramos RA1 B cells amounted to 260 nM.

For the molecule `Cc1c(-c2ccc(C(N)=O)c3[nH]c4cc(NC(=O)C5CC5)ccc4c23)cccc1N1Cc2ccccc2C1=O` [Example 66-39], the IC50 with Ramos RA1 B cells came to 260 nM.

Take `Cc1ccc2c(c1)CN(c1cncc(-c3ccc(C(N)=O)c4[nH]c5cc(N6CCOC6=O)ccc5c34)c1C)C2=O` [Example 66-40]: the IC50 in the assay with Ramos RA1 B cells turned out to be 270 nM.

As for `Cc1c(-c2ccc(C(N)=O)c3[nH]c4cc(C(O)CO)ccc4c23)cccc1-n1cnc2ccc(F)cc2c1=O` (stereo not drawn) [Example 70-13], the concentration for half-maximal inhibition (IC50) was 11 nM with Ramos RA1 B cells and 0.7 nM at human recombinant Btk.

On to `Cc1c(-c2ccc(C(N)=O)c3[nH]c4cc(C(O)CO)ccc4c23)cccc1-n1cnc2ccc(Cl)cc2c1=O` (stereo not drawn) [Example 70-14], for which the half-maximal inhibitory concentration (IC50) with Ramos RA1 B cells was 14 nM; at human recombinant Btk, 0.9 nM.

For the molecule `Cc1c(/N=C2\OCc3ccncc32)cccc1-c1ccc(C(N)=O)c2[nH]c3c(c12)CCC(C(C)(C)O)C3` (stereo not drawn) [Example 76-7], the IC50 in the assay with Ramos RA1 B cells is 240 nM.

For `Cc1c(-c2ccc(C(N)=O)c3[nH]c4cc(C(C)(C)O)ccc4c23)cccc1N1Cc2ccc(F)cc2C1=O` [Example 76-15], the results for the IC50 in the assay with Ramos RA1 B cells and on human recombinant Btk were 48 nM and 2.4 nM, respectively. In addition, the “inhibited the anti-KLH IgG response” value in assay [1] (10 mg/kg twice daily) was determined as 29%; in assay [1] (30 mg/kg twice daily), 56%.

Turning to `Cc1c(-c2ccc(C(N)=O)c3[nH]c4cc(C(C)(C)O)ccc4c23)cccc1-n1cnc2cccc(F)c2c1=O` [Example 76-26], the half-inhibitory concentration (IC50) in the assay on Ramos RA1 B cells turned out to be 18 nM.

On to `COc1ccc2c(c1)CN(c1cccc(-c3ccc(C(N)=O)c4[nH]c5cc(C(C)(C)O)ccc5c34)c1C)C2=O` [Example 76-32, 7-(2-hydroxypropan-2-yl)-4-(3-(5-methoxy-1-oxoisoindolin-2-yl)-2-methylphenyl)-9H-carbazole-1-carboxamide], for which the concentration for half-maximal inhibition (IC50) is 38 nM in the assay with Ramos RA1 B cells and 3.2 nM on human recombinant Btk.

`Cc1ccc2ncn(-c3cccc(-c4ccc(C(N)=O)c5[nH]c6c(c45)CCC(C(C)(C)O)C6)c3C)c(=O)c2c1` (stereo not drawn) [Example 76-43]: the half-inhibitory concentration (IC50) with Ramos RA1 B cells stood at 260 nM.

For `Cc1c(/N=C2\OCc3ccncc32)cccc1-c1ccc(C(N)=O)c2[nH]c3cc(C(C)(C)OCCO)ccc3c12` [Example 76-49], the IC50 in the assay with Ramos RA1 B cells stood at 14 nM.

Take `Cc1c(-c2ccc(C(N)=O)c3[nH]c4cc(C(C)(C)O)ccc4c23)cccc1-n1cnc2c(F)cccc2c1=O` [Example 76-51]: the IC50 in the assay with Ramos RA1 B cells was found to be 17 nM; at human recombinant Btk it was 1.4 nM.

As for `Cc1cn2ccn(-c3cccc(-c4ccc(C(N)=O)c5[nH]c6cc(NC(C)C)ccc6c45)c3C)c(=O)c2n1` [Example 80-2], in the assay with Ramos RA1 B cells, the IC50 came out at 16 nM.

For the molecule `Cc1c(Nc2ncnc3c(F)cccc23)cccc1-c1ccc(C(N)=O)c2[nH]c3cc(C(C)(C)O)ccc3c12` [Example 81-1, 4-(3-(8-fluoroquinazolin-4-ylamino)-2-methylphenyl)-7-(2-hydroxypropan-2-yl)-9H-carbazole-1-carboxamide], the concentration for half-maximal inhibition (IC50) in the assay with Ramos RA1 B cells is 15 nM.

`COC1=CC(=O)N(c2cccc(-c3ccc(C(N)=O)c4[nH]c5cc(C(C)(C)O)ccc5c34)c2C)C1` [Example 82-1, 7-(2-hydroxypropan-2-yl)-4-(3-(4-methoxy-2-oxo-2,5-dihydro-1H-pyrrol-1-yl)-2-methylphenyl)-9H-carbazole-1-carboxamide]: the half-maximal inhibitory concentration (IC50) in the assay with Ramos RA1 B cells was determined as 17 nM; on human recombinant Btk, 1.9 nM.

For orientation: IC50 means the point on the concentration scale where inhibition reaches its midpoint.
